Results on six compounds are retold here after patent US12070443B2, “Methods of treating and preventing breast cancer with S-equol” (The Board of Regents of the University of Texas System, priority 2018, dated 2024).

In test [1] the test system is TNBC. Description: Pilot biomarker clinical study of Ki67 in TNBC subjects. In kind it is in vivo, human. As for the experimental part: A pilot biomarker clinical study was performed in 20 subjects with documented TNBC to determine the effect of the ERβ agonist S-equol on Ki67 an indicator of tumor cell proliferation. Tumor cell proliferation was measured by immunohistological staining for Ki-67. See, FIG. 13 for the outline of the protocol. Ki-67 is encoded by the gene MKI67 gene and is required to maintain individual mitotic chromosomes dispersed in the cytoplasm following nuclear envelope disassembly. Measuring the fraction of Ki-67-positive cells in a tumor is known to be a reliable parameter for assessing cancer patient prognosis. Subjects with TNBC are known to have very high levels of Ki67.
Patients enrolled in the study received a history, physical, laboratory assessment, radiological imaging, and diagnostic biopsies. Immunohistochemistry (IHC) of Ki67 (proliferation marker), total ERβ, and pY36-ERβ (phosphorylated ERβ), B7H1 (also known as PDL-1) and BRCA1 (breast cancer 1, early onset) were conducted using core needle biopsy tissue samples prior to treatment. Patients were given oral S-equol 50 mg, twice daily for approximately two weeks (10-21 days) prior to the scheduled oncologic surgeries or start of primary systemic therapy. Tumor samples were obtained from the surgery or the two-week repeat core needle biopsy. Post-treatment IHC evaluation of Ki67, total ERβ, phosphorylated ERβ (pY36) and BRCA1 were obtained. Ki67 reduction is a validated surrogate marker of both short and long term hormonal therapy efficacy in trials of human breast cancer and was compared pre- and post-treatment with S-equol. […] A c-DNA microarray platform was also used to discover downstream transcriptional targets of ERβ resulting from activation by S-equol.
Women eligible for the study had newly diagnosed, previously untreated, triple negative breast cancer, with an intact primary breast tumor of any size. All stages of the disease were eligible. They took S-equol during the time they underwent standard preoperative evaluation or pre-therapeutic work-up for advanced disease, such as staging procedures or central line placement. If primary surgery was performed, tissue leftover after standard diagnostic evaluation was used for the two-week biomarker assessment. […] See, FIG. 9.
A standard procedure for acquiring core biopsy with a Bard 14-gauge needle was utilized for determining TNBC prior to enrollment. Whenever possible, the tumor tissues used for IHC analyses were acquired at the same time as the diagnostic core biopsy. The tissue samples were sent for staining of total and pY36 ERβ and Ki67, and analyzed. Testing for ERα, PR, and HER-2 was performed using validated methods. TNBC tumors were defined as less than 5% nuclear staining of carcinoma cells for ERα and PR and either 0, 1, or 2+ staining for HER-2 by IHC. Whole-Genome DASL HT platform from Illumina, which is designed for gene expression profiling with extremely low input of RNA (50 pg), was used to interrogate paired FFPE tissue obtained before and after exposure to S-equol.
The primary analysis estimated the geometric mean change of the Ki67 expression from baseline to two weeks. This was performed using a one-sample t-test of the pre/post differences in the log-transformed data, and summarized by the 95% confidence interval. […]

Test [2] concerns MDA-MB-231 cell-derived xenograft tumor. Description: MDA-MB-231 xenograft in athymic nude mice. The format is in vivo. As to the method: Further work in a preclinical animal model supports the notion of using S-equol to treat TNBC breast cancer. In immunocompromised mouse xenograft experiments, which used MDA-MB-231, a human TNBC breast cancer cell line, growth of tumors was suppressed by 60% with S-equol treatment compared to control. 5×10^6 MDA-MB-231 cells were injected orthotopically into mammary gland fat pads of 6 week-old female athymic nude mice (Harlan). When the tumor masses reached 50 to 80 mm^3 (about one week after the inoculation), the mice were given daily subcutaneous injections of S-equol (20 or 60 mg/kg per day) or PBS as a vehicle control. Tumor development was followed by caliper measurements along two orthogonal axes: length (L) and width (W) and volume (V) was estimated by the formula V=[L×(W^2)]/2. Xenograft tumors harvested from mice were fixed in 10% neutral-buffered formalin, dehydrated, embedded in paraffin, and sectioned at 3 μm thickness. Representative tumor sections from vehicle control and S-equol-treated mice were tested for Ki-67 expression to assess cell proliferation, and for ERβ pY36. Statistical significance in the experiments was assessed by two-tailed Student's t test. In all assays, p<0.05 was considered statistically significant. See, Yuan et al. 2016 listed below, which is incorporated by reference herein for all purposes.

Test [3] concerns AT3 mammary tumor cell line. Description: AT3 mammary tumor challenge in mice, S-equol and/or anti-PD-1. The format is in vivo. Particulars: AT3 tumors. As to the method: The following three murine mammary tumor lines were tested to determine the effects of a PD-1 inhibitor, S-equol and a combination of the two therapies on tumor growth: (1) E0771 (B6 background), (2) AT-3 (B6 background), and (3) 4T1 (BalbC background). This experimental design includes four arms (using AT-3 as an example): (1) controls, (2) αPD-1, (3) S-equol, and (4) αPD-1+S-equol (FIG. 3) by injecting into mice 2×10^5 cells subcutaneously into the 4th mammary gland fat pad.

The target of the next test is T1, ERβ pY36 (Homo sapiens, UniProt Q92731).
T1 construct: MDA-MB-231, a human TNBC breast cancer cell line; endogenous in cells; host or cells: MDA-MB-231 (human TNBC line; also as xenograft tumours in athymic nude mice)
T1 sequence (Q92731 whole entry): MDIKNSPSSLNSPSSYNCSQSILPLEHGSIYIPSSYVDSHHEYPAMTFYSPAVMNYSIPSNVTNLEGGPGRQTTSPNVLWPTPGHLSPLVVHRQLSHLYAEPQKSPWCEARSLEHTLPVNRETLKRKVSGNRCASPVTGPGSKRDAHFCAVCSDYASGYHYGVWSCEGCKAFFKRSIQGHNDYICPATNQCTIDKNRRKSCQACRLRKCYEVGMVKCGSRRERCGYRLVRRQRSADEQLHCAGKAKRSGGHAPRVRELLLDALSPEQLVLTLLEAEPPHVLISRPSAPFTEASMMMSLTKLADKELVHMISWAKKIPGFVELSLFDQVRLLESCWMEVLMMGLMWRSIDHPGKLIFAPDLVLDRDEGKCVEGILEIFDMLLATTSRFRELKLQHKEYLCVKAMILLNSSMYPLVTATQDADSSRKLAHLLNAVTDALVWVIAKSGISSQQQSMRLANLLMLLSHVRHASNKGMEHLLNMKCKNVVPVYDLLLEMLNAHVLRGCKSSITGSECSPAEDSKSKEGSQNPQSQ
Description: pY36-specific phosphorylation signal in MDA-MB-231 cells. In kind it is cell-based. Particulars: MDA-MB-231 cells (FIG. 18A).

The subject of a further test is Ki67 expression. The note with it: after two weeks, IMPACT trial; cited from earlier work.
For test [4], the system named is TNBC. The note with it: cited from earlier work.
Where [5] appears, read: of 17 evaluable patients, S-equol 50 mg twice daily.

“Also recorded” adds a separate entry of the source. Where two headings read alike, the source gives them in different places.

As for `Oc1ccc([C@H]2COc3cc(O)ccc3C2)cc1` [S-equol], in the test with TNBC [1] (setting [5]), the “patients with 0-20% reduction in Ki-67” value turned out to be 7 patients, the “patients with greater than 20% reduction in Ki-67” value was “one”, the “patients with greater than 30% reduction in Ki-67” value was found to be 4 patients and the “patients with no reduction in Ki-67” value was 5 patients. The “Ki67 change pre- vs post-treatment” value with TNBC [1] (oral S-equol 50 mg twice daily, 10-21 days, TNBC patients) was “measurable decrease in Ki67; also recorded: measurable decline in Ki67”. Moreover, in test [2] (daily subcutaneous S-equol 20 or 60 mg/kg per day), the “growth of tumors suppressed compared to control” value amounted to 60%. The xenograft tumor growth result in test [2] (in words (FIGS. 8, 15, 18B)) is “inhibits tumor growth in vivo; also recorded: reduces the growth of TNBC cells; also recorded: inhibited”. Besides, the tumor size entry in test [3] (excised tumors (FIG. 4C)) is listed as “reduce tumor size compared to control”. For the same compound, the tumor weight entry in test [3] (anti-PD-1 200 μg every 3 days, S-equol 50 mg/kg per day (FIG. 4B)) is on record as “reduce tumor weight compared to control”. The tumor volume entry in test [3] (anti-PD-1 200 μg every 3 days, S-equol 50 mg/kg per day, over 35 days post-challenge (FIG. 4A)) was “reduce tumor volume compared to control”. Further, on ERβ pY36, the pY36-specific phosphorylation signal result is recorded as “enhanced”.

Take `CC(C)(C#N)c1cc(Cn2cncn2)cc(C(C)(C)C#N)c1` [anastrazole]: in the test with Ki67 expression, the “change in the geometric mean of Ki67 expression” value was −76%.

On to `CC/C(=C(\c1ccccc1)c1ccc(OCCN(C)C)cc1)c1ccccc1` [tamoxifen], for which the “change in the geometric mean of Ki67 expression” value with Ki67 expression is −59.5%.

Regarding atezolizumab: an αPD-L1 antibody, the response rate in the test with TNBC [4] (21 evaluable PD-L1 expressing TNBC tumors) is recorded as 19%.

On to avelumab: another αPD-L1 antibody, for which, in the test with TNBC [4] (168 TNBC tumors unselected for PD-L1 expression), the response rate is recorded as 8.6%.

As for pembrolizumab: an αPD-1 antibody, in the test on TNBC [4] (Phase 1, 27 women, pretreated chemotherapy resistant metastatic TNBC expressing PD-L1), the response rate is 18.4%.
